System: 521955-158-R2-J5-PDC complex spheroids, viability
Experiment: Anticancer human tumor 521955-158-R2-J5-PDC patient-derived pancreatic carcinoma cell line growth inhibition [RAS]
Details: for IC50: curve of first compound; for viability, T/C: stronger effect = lower value
Summary of the method: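 Agents were tested in combination matrices in half-log decrements from a top concentration at or near clinical Cmax (10 microM if undetermined). Targets were multi-cell spheroids of tumour lines plus HUVEC and MSC stromal cells.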
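Note: compound exposure lasted seven days before the viability read.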
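Throughout, for viability, T/C: spheroids also contain HUVEC endothelial cells and mesenchymal stem cells as stroma.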

IC50 (second compound 0.0316 µM): 1.97 nM | IC50 (second compound 0.1 µM): 1.08 nM | IC50 (second compound 0.316 µM): < 0.316 nM | IC50 (second compound 1 µM): < 0.316 nM | IC50 (second compound 3.16 µM): < 0.316 nM | IC50 (second compound 10 µM): < 0.316 nM
SMILES: CC(C)n1nc(-c2ccc3oc(N)nc3c2)c2c(N)ncnc21 + C#Cc1c(F)ccc2cc(O)cc(-c3ncc4c(N5CC6CCC(C5)N6)nc(OCC56CCCN5CC(F)C6)nc4c3F)c12
viability, T/C (second compound 0.0316 µM, first compound 0.000316 µM): 83.6% | viability, T/C (second compound 0.0316 µM, first compound 0.001 µM): 58.1% | viability, T/C (second compound 0.0316 µM, first compound 0.00316 µM): 46.7% | viability, T/C (second compound 0.0316 µM, first compound 0.01 µM): 27.2% | viability, T/C (second compound 0.0316 µM, first compound 0.0316 µM): 20.3% | viability, T/C (second compound 0.0316 µM, first compound 0.1 µM): 16.5% | viability, T/C (second compound 0.1 µM, first compound 0.000316 µM): 51.2% | viability, T/C (second compound 0.1 µM, first compound 0.001 µM): 51.9% | viability, T/C (second compound 0.1 µM, first compound 0.00316 µM): 40.8% | viability, T/C (second compound 0.1 µM, first compound 0.01 µM): 22.4% | viability, T/C (second compound 0.1 µM, first compound 0.0316 µM): 12.6% | viability, T/C (second compound 0.1 µM, first compound 0.1 µM): 12.4% | viability, T/C (second compound 0.316 µM, first compound 0.000316 µM): 42.1% | viability, T/C (second compound 0.316 µM, first compound 0.001 µM): 56.1% | viability, T/C (second compound 0.316 µM, first compound 0.00316 µM): 40.2% | viability, T/C (second compound 0.316 µM, first compound 0.01 µM): 24.4% | viability, T/C (second compound 0.316 µM, first compound 0.0316 µM): 13.6% | viability, T/C (second compound 0.316 µM, first compound 0.1 µM): 8.05% | viability, T/C (second compound 1 µM, first compound 0.000316 µM): 49.6% | viability, T/C (second compound 1 µM, first compound 0.001 µM): 45.1% | viability, T/C (second compound 1 µM, first compound 0.00316 µM): 40.4% | viability, T/C (second compound 1 µM, first compound 0.01 µM): 22.1% | viability, T/C (second compound 1 µM, first compound 0.0316 µM): 13.7% | viability, T/C (second compound 1 µM, first compound 0.1 µM): 8.36% | viability, T/C (second compound 3.16 µM, first compound 0.000316 µM): 42.6% | viability, T/C (second compound 3.16 µM, first compound 0.001 µM): 44.6% | viability, T/C (second compound 3.16 µM, first compound 0.00316 µM): 33.2% | viability, T/C (second compound 3.16 µM, first compound 0.01 µM): 21.3% | viability, T/C (second compound 3.16 µM, first compound 0.0316 µM): 11% | viability, T/C (second compound 3.16 µM, first compound 0.1 µM): 7.2% | viability, T/C (second compound 10 µM, first compound 0.000316 µM): 38.9% | viability, T/C (second compound 10 µM, first compound 0.001 µM): 33.8% | viability, T/C (second compound 10 µM, first compound 0.00316 µM): 21.3% | viability, T/C (second compound 10 µM, first compound 0.01 µM): 17% | viability, T/C (second compound 10 µM, first compound 0.0316 µM): 10.4% | viability, T/C (second compound 10 µM, first compound 0.1 µM): 7.51%

From PubChem BioAssay AID2060900 (Molecular Pharmacology Branch, DTP, NCI, 2025)
